# Literature values as cited in PMC7465340, “Preparation and Evaluation of Eudragit L100-PEG Proliponiosomes for Enhanced Oral Delivery of Celecoxib” (Pharmaceutics, 2020).
# Like-named read-outs stand apart in the source and are kept apart here.
smiles,measurement,setting,value
"Cc1ccc(-c2cc(C(F)(F)F)nn2-c2ccc(S(N)(=O)=O)cc2)cc1 [CXB, Celecoxib]",solubility in aqueous media,pH 1.2,1.4 µg/mL
same,solubility in aqueous media,pH 6.8,1.2 µg/mL
same,solubility of free CXB,pH 6.8,≈ 1.23 ± 0.05 μg/mL
